Data: ChEMBL document CHEMBL1153651, “Synthesis and biology of the rigidified glutamate analogue, trans-2-carboxyazetidine-3-acetic acid (t-CAA)” (Bioorg Med Chem Lett, 1996)
pEC50, pIC50: −log10 of the molar value.

Legend:
[1] = molecular target: T1, Metabotropic glutamate receptor 6 (Homo sapiens, UniProt O15303); assay: Compound was tested for its agonist activity against mGluR 6 receptor in CHO cells; format: functional, cell-based; settings: Cricetulus griseus
[2] = molecular target: Glutamate receptor ionotropic, kainate 3 (Rattus norvegicus, UniProt P42264); assay: Compound was tested in vitro for binding affinity against Ionotropic glutamate receptor kainate using [3H]kainate as the radioligand.
[3] = molecular target: Glutamate receptor ionotropic, AMPA (Rattus norvegicus, UniProt P19490+P19491+P19492+P19493); assay: Compound was tested in vitro for binding affinity against Ionotropic glutamate receptor AMPA, using [3H]AMPA as the radioligand in rat cerebral cortical membranes.; format: cell membranes
[4] = molecular target: T2, Metabotropic glutamate receptor 5 (Homo sapiens, UniProt P41594); assay: Compound was tested for its agonist activity against mGluR 5a receptor in CHO cells.; format: functional, cell-based, Cricetulus griseus
Target sequence in this assay (P41594 whole entry): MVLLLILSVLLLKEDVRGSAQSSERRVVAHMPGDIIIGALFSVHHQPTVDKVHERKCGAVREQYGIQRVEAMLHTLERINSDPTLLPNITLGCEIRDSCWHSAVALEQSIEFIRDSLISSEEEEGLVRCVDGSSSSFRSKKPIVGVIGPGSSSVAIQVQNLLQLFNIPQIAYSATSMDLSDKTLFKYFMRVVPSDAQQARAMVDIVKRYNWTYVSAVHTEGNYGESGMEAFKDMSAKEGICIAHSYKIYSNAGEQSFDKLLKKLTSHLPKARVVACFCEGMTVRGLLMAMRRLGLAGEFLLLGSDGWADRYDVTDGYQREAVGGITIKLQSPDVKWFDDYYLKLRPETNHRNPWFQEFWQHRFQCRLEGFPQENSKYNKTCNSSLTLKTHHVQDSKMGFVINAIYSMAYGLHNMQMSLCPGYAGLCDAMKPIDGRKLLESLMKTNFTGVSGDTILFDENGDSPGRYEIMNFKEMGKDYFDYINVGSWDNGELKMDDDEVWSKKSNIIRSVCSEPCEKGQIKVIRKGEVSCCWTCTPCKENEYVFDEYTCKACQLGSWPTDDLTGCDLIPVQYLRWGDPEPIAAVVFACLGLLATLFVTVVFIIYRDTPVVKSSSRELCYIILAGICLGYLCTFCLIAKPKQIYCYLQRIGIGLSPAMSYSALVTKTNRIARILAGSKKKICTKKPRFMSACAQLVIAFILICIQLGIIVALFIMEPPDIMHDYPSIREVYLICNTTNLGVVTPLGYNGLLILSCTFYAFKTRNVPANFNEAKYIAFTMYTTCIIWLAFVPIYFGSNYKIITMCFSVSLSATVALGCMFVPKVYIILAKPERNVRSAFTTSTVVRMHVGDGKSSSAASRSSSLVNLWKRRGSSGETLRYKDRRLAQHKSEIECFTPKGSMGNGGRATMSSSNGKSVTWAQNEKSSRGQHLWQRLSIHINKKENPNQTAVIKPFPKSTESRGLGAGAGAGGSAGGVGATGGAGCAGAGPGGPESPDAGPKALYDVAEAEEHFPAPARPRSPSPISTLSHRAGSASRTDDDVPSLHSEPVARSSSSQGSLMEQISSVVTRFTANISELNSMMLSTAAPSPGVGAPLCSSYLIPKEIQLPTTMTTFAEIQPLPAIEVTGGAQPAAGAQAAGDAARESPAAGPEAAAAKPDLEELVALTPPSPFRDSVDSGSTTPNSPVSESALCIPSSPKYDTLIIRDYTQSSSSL

[5] = molecular target: Metabotropic glutamate receptor 1 (Homo sapiens, UniProt Q13255); assay: Compound was tested for its agonist activity against mGluR1a receptor in CHO cells.; format: functional, cell-based, Cricetulus griseus
[6] = molecular target: T3, Metabotropic glutamate receptor 2 (Homo sapiens, UniProt Q14416); assay: Compound was tested for its antagonist activity against mGluR 2 receptor in CHO cells.; format: functional, cell-based, Cricetulus griseus
Target sequence in this assay (Q14416 whole entry): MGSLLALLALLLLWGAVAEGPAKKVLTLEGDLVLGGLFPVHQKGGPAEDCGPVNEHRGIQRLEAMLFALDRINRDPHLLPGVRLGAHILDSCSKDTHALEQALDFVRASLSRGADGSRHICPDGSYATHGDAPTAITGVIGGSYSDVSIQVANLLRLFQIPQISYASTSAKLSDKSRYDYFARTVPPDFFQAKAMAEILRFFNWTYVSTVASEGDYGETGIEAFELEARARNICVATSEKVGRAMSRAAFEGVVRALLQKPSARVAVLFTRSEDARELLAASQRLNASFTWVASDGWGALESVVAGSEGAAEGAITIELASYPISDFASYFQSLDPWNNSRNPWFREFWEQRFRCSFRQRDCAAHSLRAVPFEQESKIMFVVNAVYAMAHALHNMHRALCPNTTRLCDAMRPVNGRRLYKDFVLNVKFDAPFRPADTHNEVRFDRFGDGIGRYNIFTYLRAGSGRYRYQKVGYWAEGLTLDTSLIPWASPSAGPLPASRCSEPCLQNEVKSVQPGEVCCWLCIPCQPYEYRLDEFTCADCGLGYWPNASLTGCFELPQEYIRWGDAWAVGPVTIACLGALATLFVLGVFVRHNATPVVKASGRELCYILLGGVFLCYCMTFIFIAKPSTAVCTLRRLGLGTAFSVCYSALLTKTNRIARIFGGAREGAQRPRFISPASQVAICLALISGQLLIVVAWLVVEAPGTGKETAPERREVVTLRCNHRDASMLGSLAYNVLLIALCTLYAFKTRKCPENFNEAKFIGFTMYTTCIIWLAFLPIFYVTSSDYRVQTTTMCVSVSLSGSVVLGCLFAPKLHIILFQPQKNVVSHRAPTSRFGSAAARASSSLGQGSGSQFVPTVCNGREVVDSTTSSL

[7] = molecular target: T2, Metabotropic glutamate receptor 5; assay: Compound was tested for its agonist activity against mGluR 5a receptor in CHO cells; format: functional, cell-based; settings: Cricetulus griseus
[8] = molecular target: Metabotropic glutamate receptor 4 (Rattus norvegicus, UniProt P31423); assay: Compound was tested in vitro for binding affinity against mGluR4a metabotropic glutamate receptor, using [3H]L-AP4 as the radioligand.
[9] = molecular target: T3, Metabotropic glutamate receptor 2; assay: Compound was tested for its agonist activity against mGluR 2 receptor in CHO cells.; format: functional, cell-based, Cricetulus griseus
Target sequence in this assay (Q14416 whole entry): as above

Rattus norvegicus [10] = species: Rattus norvegicus; assay: Compound was tested in vitro for binding affinity against sodium dependent [3H]glu-uptake into rat cortical synaptosomes, using [3H]-glutamate as the radioligand.; format: functional; settings: Brain
[11] = molecular target: Metabotropic glutamate receptor 1 (Rattus norvegicus, UniProt P23385); assay: Compound was tested in vitro for binding affinity against mGluR1a metabotropic glutamate receptor, using [3H]glutamate as the radioligand.
[12] = molecular target: T1, Metabotropic glutamate receptor 6; assay: Compound was tested for its antagonist activity against mGluR 6 receptor in CHO cells.; format: functional, cell-based, Cricetulus griseus
[13] = molecular target: T1, Metabotropic glutamate receptor 6; assay: Compound was tested for its agonist activity against mGluR 6 receptor in CHO cells.; format: functional, cell-based, Cricetulus griseus
[14] = molecular target: T3, Metabotropic glutamate receptor 2; assay: Compound was tested for its agonist activity against mGluR 2 receptor in CHO cells; format: functional, cell-based; settings: Cricetulus griseus
Target sequence in this assay (Q14416 19-872 limits assumed): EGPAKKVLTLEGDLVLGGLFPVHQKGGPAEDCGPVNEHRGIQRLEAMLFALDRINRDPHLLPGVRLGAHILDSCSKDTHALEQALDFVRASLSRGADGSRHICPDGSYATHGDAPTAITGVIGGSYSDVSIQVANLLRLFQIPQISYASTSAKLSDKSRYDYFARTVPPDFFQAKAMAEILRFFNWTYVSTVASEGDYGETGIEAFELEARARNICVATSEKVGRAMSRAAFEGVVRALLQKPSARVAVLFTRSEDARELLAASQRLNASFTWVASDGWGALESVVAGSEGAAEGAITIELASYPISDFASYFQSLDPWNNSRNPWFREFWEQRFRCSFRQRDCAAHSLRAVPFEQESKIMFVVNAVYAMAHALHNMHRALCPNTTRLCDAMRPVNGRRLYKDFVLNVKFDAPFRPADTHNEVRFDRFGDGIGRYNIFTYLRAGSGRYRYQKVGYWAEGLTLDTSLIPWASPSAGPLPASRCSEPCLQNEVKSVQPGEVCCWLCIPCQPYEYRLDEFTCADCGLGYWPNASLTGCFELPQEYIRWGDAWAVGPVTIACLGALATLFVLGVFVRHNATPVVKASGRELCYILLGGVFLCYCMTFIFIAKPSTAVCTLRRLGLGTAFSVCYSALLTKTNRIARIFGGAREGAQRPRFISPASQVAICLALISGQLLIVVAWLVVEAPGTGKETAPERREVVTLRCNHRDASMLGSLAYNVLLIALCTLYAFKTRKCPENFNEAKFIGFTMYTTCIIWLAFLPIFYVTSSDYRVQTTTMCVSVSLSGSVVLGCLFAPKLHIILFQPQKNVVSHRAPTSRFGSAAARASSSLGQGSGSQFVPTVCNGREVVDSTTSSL

Glutamate NMDA receptor = assay: Compound was tested in vitro for binding affinity against NMDA receptor, using [3H]CPP as the radioligand in rat cerebral cortical membranes.; format: cell membranes
Glutamate receptor 1 = Glutamate receptor 1 (Rattus norvegicus, UniProt P19490); assay: Compound was tested in vitro for binding affinity against Ionotropic glutamate receptor AMPA, using [3H]TCP as the radioligand.
Rattus norvegicus [15] = species: Rattus norvegicus; assay: Compound was tested in vitro for binding affinity against calcium chloride dependent glutamate uptake site, using [3H]L-AP4 as the radioligand in rat cortical membranes.; format: functional

T1 sequence (O15303 whole entry): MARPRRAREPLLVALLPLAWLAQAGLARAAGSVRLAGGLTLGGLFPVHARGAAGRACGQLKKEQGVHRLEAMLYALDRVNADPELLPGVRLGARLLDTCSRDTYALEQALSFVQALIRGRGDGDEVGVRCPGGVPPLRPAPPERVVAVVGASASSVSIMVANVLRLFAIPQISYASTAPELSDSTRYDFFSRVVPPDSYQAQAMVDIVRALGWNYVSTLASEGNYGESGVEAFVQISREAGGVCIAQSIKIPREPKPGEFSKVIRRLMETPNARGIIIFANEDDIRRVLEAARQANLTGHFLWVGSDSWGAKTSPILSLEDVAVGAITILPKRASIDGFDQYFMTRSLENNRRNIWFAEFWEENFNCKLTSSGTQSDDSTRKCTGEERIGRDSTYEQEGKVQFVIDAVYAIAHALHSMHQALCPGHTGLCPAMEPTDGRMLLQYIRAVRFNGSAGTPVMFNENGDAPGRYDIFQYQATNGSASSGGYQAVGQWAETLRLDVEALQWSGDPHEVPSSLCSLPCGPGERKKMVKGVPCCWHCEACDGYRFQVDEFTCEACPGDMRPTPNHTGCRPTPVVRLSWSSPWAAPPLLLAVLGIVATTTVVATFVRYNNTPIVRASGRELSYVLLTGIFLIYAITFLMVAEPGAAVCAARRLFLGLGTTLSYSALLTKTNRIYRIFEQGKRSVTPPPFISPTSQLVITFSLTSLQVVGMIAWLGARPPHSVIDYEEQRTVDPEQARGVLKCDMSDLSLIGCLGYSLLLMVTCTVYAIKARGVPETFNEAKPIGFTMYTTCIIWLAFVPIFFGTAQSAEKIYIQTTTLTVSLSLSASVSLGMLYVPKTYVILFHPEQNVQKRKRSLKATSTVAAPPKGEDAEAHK
Chain of Metabotropic glutamate receptor 1 (Rattus norvegicus, UniProt P23385) (P23385 whole entry): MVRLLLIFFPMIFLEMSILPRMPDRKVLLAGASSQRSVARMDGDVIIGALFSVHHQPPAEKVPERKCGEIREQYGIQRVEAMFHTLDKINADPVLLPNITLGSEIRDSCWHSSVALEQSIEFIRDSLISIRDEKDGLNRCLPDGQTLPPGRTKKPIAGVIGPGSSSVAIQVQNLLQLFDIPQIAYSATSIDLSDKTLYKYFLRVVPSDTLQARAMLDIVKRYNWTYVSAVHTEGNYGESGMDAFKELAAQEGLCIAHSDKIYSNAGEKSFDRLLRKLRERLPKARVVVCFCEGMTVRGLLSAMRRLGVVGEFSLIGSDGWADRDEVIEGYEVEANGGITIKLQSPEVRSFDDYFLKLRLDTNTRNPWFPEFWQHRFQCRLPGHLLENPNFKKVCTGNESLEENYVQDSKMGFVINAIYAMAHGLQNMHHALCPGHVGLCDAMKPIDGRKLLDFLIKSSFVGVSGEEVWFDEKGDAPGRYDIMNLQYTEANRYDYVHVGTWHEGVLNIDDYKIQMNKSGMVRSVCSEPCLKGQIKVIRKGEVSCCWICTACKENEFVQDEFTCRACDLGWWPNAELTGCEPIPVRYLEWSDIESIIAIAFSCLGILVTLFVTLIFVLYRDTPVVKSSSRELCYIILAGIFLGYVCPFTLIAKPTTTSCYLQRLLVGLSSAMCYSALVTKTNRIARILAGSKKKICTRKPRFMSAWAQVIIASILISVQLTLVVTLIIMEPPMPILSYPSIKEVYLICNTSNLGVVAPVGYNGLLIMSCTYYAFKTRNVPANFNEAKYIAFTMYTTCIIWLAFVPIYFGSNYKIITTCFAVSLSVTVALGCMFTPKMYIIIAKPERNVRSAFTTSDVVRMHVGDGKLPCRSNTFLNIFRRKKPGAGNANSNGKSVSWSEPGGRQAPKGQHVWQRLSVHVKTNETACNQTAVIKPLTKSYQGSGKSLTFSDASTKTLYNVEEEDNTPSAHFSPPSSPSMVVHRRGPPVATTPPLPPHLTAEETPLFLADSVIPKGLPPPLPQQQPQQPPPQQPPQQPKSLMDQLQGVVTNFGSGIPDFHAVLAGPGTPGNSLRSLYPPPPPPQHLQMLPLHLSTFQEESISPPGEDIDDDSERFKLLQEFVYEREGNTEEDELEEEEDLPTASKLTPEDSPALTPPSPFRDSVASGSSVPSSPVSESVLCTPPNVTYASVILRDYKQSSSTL

**Q.** What does the source list for O=C(O)C[C@H]1CN[C@@H]1C(=O)O?
**A.** Max response [1]: 17%; inhibition ([1]; concentration not given here): 0%; pIC50 [2]: 6.15; pIC50 [3]: 4.89; pEC50 [4]: 3.98; pEC50 [5]: 3.68; pIC50 [6]: < 3.22; Max response [7]: 95%; pIC50 [8]: 3.50; pEC50 [9]: < 3.22; pIC50 (Rattus norvegicus [10]): 5.30; pIC50 [11]: 4.92; pIC50 [12]: < 3.52; pIC50 [13]: < 3.52; Max response [14]: 0%; inhibition ([14]; concentration not given here): 40%; pIC50 (Glutamate NMDA receptor): 4.31; pIC50 (Glutamate receptor 1): < 3.18; pIC50 (Rattus norvegicus [15]): 4.48
